In US20240342292A1, “Compounds for the Degradation of EGFR Kinase” (BeiGene Switzerland GmbH, priority 2021, published 2024):

Assays:
Del19/T790M/C797S EGFR = assay: EGFR degradation HTRF assay in H1975-clone #28 (DTC) cells; format: cell-based; settings: H1975 # 28 DTC (Del19/T790M/C797S), 16h treatment; for DC50: HTRF; for Dmax (%): maximum percentage of degradation
How it was run: (§1)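 DC50 from a four-parameter fit of HTRF signal. H1975 mutant-EGFR clones with endogenous EGFR knocked out; 16 h treatment, 10 uM top, 5-fold × 8.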

L858R/T790M/C797S EGFR = target: T1, L858R/T790M/C797S EGFR (Homo sapiens, UniProt P00533, C797S/L858R/T790M); assay: EGFR degradation HTRF assay in H1975-clone #25 (LTC) cells; format: cell-based; settings: 16h treatment; for DC50: H1975 # 25-LTC (L858R/T790M/C797S), HTRF; for Dmax: NCI-H1975, H1975 # 25-LTC (L858R/T790M/C797S), maximum percentage of degradation
T1 construct: expressed in transfected cells; host or cells: H1975 clone #25 (lentiviral over-expression, endogenous EGFR knocked out by sgRNA)
T1 sequence (P00533 25-1210 T790M/C797S/L858R): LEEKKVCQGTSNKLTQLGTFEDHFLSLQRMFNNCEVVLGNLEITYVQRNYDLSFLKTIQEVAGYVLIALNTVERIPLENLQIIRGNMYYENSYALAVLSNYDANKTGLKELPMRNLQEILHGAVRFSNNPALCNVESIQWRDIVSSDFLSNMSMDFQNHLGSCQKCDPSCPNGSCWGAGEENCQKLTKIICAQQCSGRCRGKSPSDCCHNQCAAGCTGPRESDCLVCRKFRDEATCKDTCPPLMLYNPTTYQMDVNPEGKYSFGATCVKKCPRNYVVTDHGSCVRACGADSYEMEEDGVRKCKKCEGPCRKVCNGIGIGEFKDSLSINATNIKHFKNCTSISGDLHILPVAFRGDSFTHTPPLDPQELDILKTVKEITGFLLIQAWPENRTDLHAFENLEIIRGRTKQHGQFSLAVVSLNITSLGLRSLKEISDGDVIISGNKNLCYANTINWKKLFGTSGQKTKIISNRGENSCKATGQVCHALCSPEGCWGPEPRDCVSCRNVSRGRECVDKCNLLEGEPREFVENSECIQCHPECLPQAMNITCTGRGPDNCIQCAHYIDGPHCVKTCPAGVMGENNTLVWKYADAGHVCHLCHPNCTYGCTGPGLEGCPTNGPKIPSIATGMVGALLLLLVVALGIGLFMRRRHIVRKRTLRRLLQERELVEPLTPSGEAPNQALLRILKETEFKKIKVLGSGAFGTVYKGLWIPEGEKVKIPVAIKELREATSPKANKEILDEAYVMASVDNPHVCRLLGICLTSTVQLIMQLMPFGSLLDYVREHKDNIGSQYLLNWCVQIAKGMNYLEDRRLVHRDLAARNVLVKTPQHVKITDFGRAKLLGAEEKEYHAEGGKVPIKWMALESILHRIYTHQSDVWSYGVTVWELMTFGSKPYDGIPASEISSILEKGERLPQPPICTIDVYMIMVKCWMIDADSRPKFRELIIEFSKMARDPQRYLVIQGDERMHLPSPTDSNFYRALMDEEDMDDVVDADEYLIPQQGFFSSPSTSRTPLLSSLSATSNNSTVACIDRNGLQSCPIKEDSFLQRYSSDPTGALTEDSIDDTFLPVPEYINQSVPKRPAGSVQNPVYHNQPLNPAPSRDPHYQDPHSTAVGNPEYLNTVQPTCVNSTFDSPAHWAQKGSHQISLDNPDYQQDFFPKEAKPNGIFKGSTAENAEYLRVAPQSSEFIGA
How it was run: as §1

SMILES | DC50 (Del19/T790M/C797S EGFR) [nM] | Dmax (%) (Del19/T790M/C797S EGFR) | DC50 (L858R/T790M/C797S EGFR) [nM] | Dmax (L858R/T790M/C797S EGFR) [%]
Cc1cc2cc(n1)-c1cnn(C)c1OCCC[C@@H](C)CN1/C(=N/C2=O)Nc2ccc(CCN3CCN(c4cc(F)c([C@H]5CCC(=O)NC5=O)c(F)c4)CC3)cc21 [Example 446, (R)-3-(2,6-difluoro-4-(4-(2-((R,E)-1^1,2^6,7-trimethyl-3-oxo-5^2,5^3-dihydro-1^1H,5^1H-11-oxa-4-aza-5(2,1)-benzo[d]imidazola-2(2,4)-pyridina-1(4,5)-pyrazolacycloundecaphane-5^6-yl)ethyl)piperazin-1-yl)phenyl)piperidine-2,6-dione] | 1.19 | 76.42 | 0.696 | 91.8
Cc1cc2cc(n1)-c1cnn(C)c1OCCC[C@@H](C)CN1/C(=N/C2=O)Nc2ccc(CN3CCN(C(=O)C4CN(c5cc(F)c([C@H]6CCC(=O)NC6=O)c(F)c5)C4)CC3)cc21 [Example 76, (R)-3-(2,6-difluoro-4-(3-(4-(((R,E)-1^1,2^6,7-trimethyl-3-oxo-5^2,5-dihydro-1^1H,5^1H-11-oxa-4-aza-5(2,1)-benzo[d]imidazola-2(2,4)-pyridina-1(4,5)-pyrazolacycloundecaphane-5^6-yl)methyl)piperazine-1-carbonyl)azetidin-1-yl)phenyl)piperidine-2,6-dione] | 0.7 | 75.8 | 0.9 | 84.4
Cc1cc2cc(n1)-c1cnn(C)c1OCCC[C@@H](C)CN1/C(=N/C2=O)Nc2ccc(CN3CCC4(CC3)CN(CCc3cc(F)c([C@H]5CCC(=O)NC5=O)c(F)c3)C4)cc21 [Example 23, (R)-3-(2,6-difluoro-4-(2-(7-(((R,E)-1^1,2^6,7-trimethyl-3-oxo-5^2,5^3-dihydro-1^1H,5^1H-11-oxa-4-aza-5(2,1)-benzo[d]imidazola-2(2,4)-pyridina-1(4,5)-pyrazolacycloundecaphane-5^6-yl)methyl)-2,7-diazaspiro[3.5]nonan-2-yl)ethyl)phenyl)piperdine-2,6-dione] | 2.1 | 78.0 | 2.3 | 91.8
Cc1cc2cc(n1)-c1cnn(C)c1OCCC[C@@H](C)CN1/C(=N/C2=O)Nc2ccc(N3CCN([C@H]4C[C@@H](Nc5cc(F)c([C@H]6CCC(=O)NC6=O)c(F)c5)C4)CC3)cc21 [Example 445, (R)-3-(2,6-difluoro-4-(((1 S,3S)-3-(4-((R,E)-1^1,2^6,7-trimethyl-3-oxo-5^2,5^3-dihydro-1^1H,5^1H-11-oxa-4-aza-5(2,1)-benzo[d]imidazola-2(2,4)-pyridina-1(4,5)-pyrazolacycloundecaphane-5^6-yl)piperazin-1-yl)cyclobutyl)amino)phenyl)piperidine-2,6-dione] | 2.14 | 74.88 | 0.559 | 84.5
Cc1cc2cc(n1)-c1cnn(C)c1OCCC[C@@H](C)CN1/C(=N/C2=O)Nc2ccc(C(=O)N(C)[C@H]3CCN(CCc4cc(F)c([C@H]5CCC(=O)NC5=O)c(F)c4)[C@@H](C)C3)cc21 [Example 267, (R,E)-N—((2S,4S)-1-(4-((R)-2,6-dioxopiperidin-3-yl)-3,5-difluorophenethyl)-2-methylpiperidin-4-yl)-N,1^1,2^6,7-tetramethyl-3-oxo-5^2,5^3-dihydro-1^1H,5^1H-11-oxa-4-aza-5(2,1)-benzo[d]imidazola-2(2,4)-pyridina-1(4,5)-pyrazolacycloundecaphane-5^6-carboxamide] | 0.624 | 76.64 | 0.602 | 91.7
Cc1cc2cc(n1)-c1cnn(C)c1OCCC[C@@H](C)CN1/C(=N/C2=O)Nc2ccc(N3CCN([C@H]4CCN(c5ccc([C@H]6CCC(=O)NC6=O)nc5C)C[C@@H]4F)CC3)cc21 [Example 440, (R)-3-(5-((3S,4S)-3-fluoro-4-(4-((R,L)-1^1,2^6,7-trimethyl-3-oxo-5^2,5′-dihydro-1^1H,5^1H-11-oxa-4-aza-5(2,1)-benzo[d]imidazola-2(2,4)-pyridina-1(4,5)-pyrazolacycloundecaphane-5^6-yl)piperazin-1-yl)piperidin-1-yl)-6-methylpyridin-2-yl)piperidine-2,6-dione] | 0.884 | 85.39 | 0.936 | 93.5
Cc1cc2cc(n1)-c1cnn(C)c1OCCC[C@@H](C)CN1/C(=N/C2=O)Nc2ccc(N3CCN(CCNc4cc(F)c([C@H]5CCC(=O)NC5=O)c(F)c4)CC3)cc21 (single isomer, unassigned) [Example 368] | 0.623 | 80.06 | 0.546 | 88
Cc1cc2cc(n1)-c1cnn(C)c1OCCC[C@@H](C)CN1/C(=N/C2=O)Nc2ccc(N3CCN(C4CCN(c5ccc(C6CCC(=O)NC6=O)nc5C)CC4)[C@@H](CC#N)C3)cc21 (stereo partly drawn) [Example 456, 2-((2S)-1-(1-(6-(2,6-dioxopiperidin-3-yl)-2-methylpyridin-3-yl)piperidin-4-yl)-4-((R,E)-1^1,2^6,7-trimethyl-3-oxo-5^2,5^3-dihydro-1^1H,5^1H-11-oxa-4-aza-5(2,1)-benzo[d]imidazola-2(2,4)-pyridina-1(4,5)-pyrazolacycloundecaphane-5^6-yl)piperazin-2-yl)acetonitrile] | 0.542 | 84.5 | 0.676 | 93.2
Cc1cc2cc(n1)-c1cnn(C)c1OCCC[C@@H](C)CN1/C(=N/C2=O)Nc2ccc(CN3C[C@@H]4C[C@H]3CN4C(=O)[C@@H]3CCN(c4cc(F)c([C@H]5CCC(=O)NC5=O)c(F)c4)C3)cc21 [Example 82, (R)-3-(2,6-difluoro-4-((R)-3-((1S,4S)-5-(((R,E)-1^1,2^6,7-trimethyl-3-oxo-5^2,5^3-dihydro-1^1H,5^1H-11-oxa-4-aza-5(2,1)-benzo[d]imidazola-2(2,4)-pyridina-1(4,5)-pyrazolacycloundecaphane-5^6-yl)methyl)-2,5-diazabicyclo[2.2.1]heptane-2-carbonyl)pyrrolidin-1-yl)phenyl)piperidine-2,6-dione] | 0.7 | 78.4 | 0.6 | 88.6
COC[C@@H]1CN(c2cc(F)c([C@H]3CCC(=O)NC3=O)c(F)c2)CCN1C(=O)C1CCN(c2ccc3c(c2)N2C[C@H](C)CCCOc4c(cnn4C)-c4cc(cc(C)n4)C(=O)/N=C/2N3)CC1 [Example 357, (R)-3-(2,6-difluoro-4-((S)-3-(methoxymethyl)-4-(1-((R,E)-1^1,2^6,7-trimethyl-3-oxo-5^2,5^3-dihydro-1^1H,5^1H-11-oxa-4-aza-5(2,1)-benzo[d]imidazola-2(2,4)-pyridina-1(4,5)-pyrazolacycloundecaphane-5^6-yl)piperidine-4-carbonyl)piperazin-1-yl)phenyl)piperidine-2,6-dione] | 0.903 | 73.73 | 0.824 | 87.6
Cc1cc2cc(n1)-c1cnn(C)c1OCCC[C@@H](C)CN1/C(=N/C2=O)Nc2ccc(N3CCN(CCc4cc(F)c([C@H]5CCC(=O)NC5=O)c(F)c4)CC3)cc21 [Example 320, (R)-3-(2,6-difluoro-4-(2-(4-((R,E)-1^1,26,7-trimethyl-3-oxo-5^2,5^3-dihydro-1^1H,5^1H-11-oxa-4-aza-5(2,1)-benzo[d]imidazola-2(2,4)-pyridina-1(4,5)-pyrazolacycloundecaphane-5^6-yl)piperazin-1-yl)ethyl)phenyl)piperidine-2,6-dione] | 0.674 | 71.04 | 0.591 | 86.2
